Experimental data taken from PMC9501377, “New Diarylamine KV10.1 Inhibitors and Their Anticancer Potential” (Pharmaceutics, 2022).

Tests used:
hERG = hERG (Homo sapiens, UniProt Q12809); assay: Two-electrode voltage-clamp on Xenopus laevis oocytes expressing hERG; format: cell-based; design: expressed in transfected cells; host or cells: Xenopus laevis oocytes (cRNA injection); settings: voltage-clamped; for inhibition at 10 µM: human, Xenopus laevis oocytes expressing hERG, pH 7.5, 10 μM
Description: (§1) Stage V–VI oocytes were isolated by partial ovariectomy from Xenopus laevis frogs (African clawed frog). Mature female frogs were purchased from CRB Xénopes (Rennes, France) and were housed in the Aquatic Facility (KU Leuven) in compliance with the regulations of the European Union (EU) concerning the welfare of laboratory animals as declared in Directive 2010/63/EU. The use of Xenopus laevis was approved by the Animal Ethics Committee of the KU Leuven (Project nr. P186/2019). After anesthetising the frogs by a 15 min submersion in 0.1% tricaine methanesulphonate (pH 7.0), the oocytes were collected. The isolated oocytes were then washed with a 1.5 mg/mL collagenase solution for 2 h to remove the follicle layer.
(§2) Ion channels (KV10.1 and hERG) were expressed in Xenopus laevis oocytes, by linearisation of the plasmids and subsequent in vitro transcription using a commercial T7 or SP6 mMESSAGE mMACHINE transcription kit (Ambion, Carlsbad, CA, USA). Defolliculated Xenopus oocytes were then injected with 20–50 nL of the cRNA at a concentration of 1 ng/nL using a micro-injector (Drummond Scientific1, Broomall, PA, USA). The oocytes were incubated in a solution containing (in mM): NaCl, 96; KCl, 2; CaCl2, 1.8; MgCl2, 2 and HEPES, 5 (pH 7.4), supplemented with 50 mg/L gentamycin sulphate and […]. After ex vivo translation, the ion channels are correctly inserted in the cell membrane of the oocytes.
(§3) Two-electrode voltage-clamp recordings were performed at room temperature (18–22 °C) using a Geneclamp 500 amplifier (Molecular Devices, San Jose, CA, USA) controlled by a pClamp data acquisition system (Axon Instruments1, Union City, CA, USA) and using an integrated digital TEVC amplifier controlled by HiClamp, an automated Voltage-Clamp Screening System (Multi Channel Systems MCS GmbH, Reutlingen, Germany). Whole-cell currents from oocytes were recorded 1–7 days after injection. The bath solution composition was ND96 (in mM): NaCl, 96; KCl, 2; CaCl2, 1.8; MgCl2, 2 and HEPES, 5 (pH 7.5). Voltage and current electrodes were filled with a 3 M solution of KCl in H2O. Resistances of both electrodes were kept between 0.5 and 1.5 MΩ. The elicited Kv10.1 and hERG currents were filtered at 0.5 kHz and sampled at 2 kHz using a four-pole low-pass Bessel filter. Leak subtraction was performed using a p/4 protocol. Starting from a holding potential of −90 mV, currents for Kv10.1 were evoked by 1 s depolarizing pulses to 0 mV and currents for hERG were evoked by 2.5 s depolarizing prepulses to +40 mV, followed by hyperpolarizing pulses to −120 mV for 2.5 s. The concentration dependency of all compounds was assessed by measuring the current inhibition in the presence of increasing compound concentrations. To this end, a stock solution of the compounds was prepared in 100% DMSO for the sake of solubility. From this stock solution, adequate dilutions with a maximum of 0.5% DMSO were made for testing. The data of the concentration–response curves were fitted with the Hill equation: y = 100/{1 + (IC50/[compound])^h}, where y is the amplitude of the compound- induced effect, IC50 is the compound concentration at half-maximal efficacy, (compound) is the compound concentration, and h is the Hill coefficient.
(§4) All electrophysiological data are presented as means ± SEM of n ≥ 3 independent experiments unless otherwise indicated. Oocyte data were analysed using pClamp Clampfit 10.4 (Molecular Devices, Downingtown, PA, USA) and OriginPro 9 (Originlab, Northampton, MA, USA) or GraphPad Prism 8 software (GraphPad Software, Inc., San Diego, CA, USA). Patch-clamp data analysis was performed using FitMaster (HEKA Electronics), IgorPro (Wavemetrics, Inc., Lake Oswego, OR, USA) and GraphPad Prism 9 (GraphPad Software, Inc., San Diego, CA, USA). The Dunnett test and one-way ANOVA were performed to calculate the significance of the induced inhibition compared to the control (p < 0.05).

KV10.1 = biological target: T1, KV10.1 (Homo sapiens, UniProt O95259); assay: Two-electrode voltage-clamp on Xenopus laevis oocytes expressing KV10.1; format: cell-based; settings: voltage-clamped
T1 construct: expressed in transfected cells; host or cells: Xenopus laevis oocytes (cRNA injection)
T1 sequence (O95259 1-989): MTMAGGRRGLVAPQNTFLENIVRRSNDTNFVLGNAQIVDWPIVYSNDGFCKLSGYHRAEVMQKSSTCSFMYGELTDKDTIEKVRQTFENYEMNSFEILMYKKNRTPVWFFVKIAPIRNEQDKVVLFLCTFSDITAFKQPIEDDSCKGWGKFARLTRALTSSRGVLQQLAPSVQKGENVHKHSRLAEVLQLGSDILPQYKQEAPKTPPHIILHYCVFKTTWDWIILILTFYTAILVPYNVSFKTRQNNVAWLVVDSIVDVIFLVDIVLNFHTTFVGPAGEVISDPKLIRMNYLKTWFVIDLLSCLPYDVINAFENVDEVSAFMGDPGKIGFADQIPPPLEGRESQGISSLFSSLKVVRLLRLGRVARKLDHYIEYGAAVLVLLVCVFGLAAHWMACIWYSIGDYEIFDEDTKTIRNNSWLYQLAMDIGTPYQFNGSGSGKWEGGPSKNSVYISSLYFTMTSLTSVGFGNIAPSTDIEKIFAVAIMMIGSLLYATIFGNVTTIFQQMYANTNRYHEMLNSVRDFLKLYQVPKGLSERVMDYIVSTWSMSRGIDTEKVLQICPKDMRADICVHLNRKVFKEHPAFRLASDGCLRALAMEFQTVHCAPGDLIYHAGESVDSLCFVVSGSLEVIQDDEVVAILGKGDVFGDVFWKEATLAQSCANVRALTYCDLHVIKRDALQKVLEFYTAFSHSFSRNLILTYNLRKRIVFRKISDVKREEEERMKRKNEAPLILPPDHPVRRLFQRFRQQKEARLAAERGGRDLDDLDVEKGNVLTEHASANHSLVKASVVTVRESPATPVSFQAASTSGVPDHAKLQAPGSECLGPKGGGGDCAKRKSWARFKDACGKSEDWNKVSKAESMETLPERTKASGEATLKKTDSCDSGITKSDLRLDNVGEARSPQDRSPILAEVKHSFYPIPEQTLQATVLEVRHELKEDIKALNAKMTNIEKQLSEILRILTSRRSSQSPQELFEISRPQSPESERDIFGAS
Description: as §1, §2, §3, §4

Chain of hERG (Q12809 whole entry): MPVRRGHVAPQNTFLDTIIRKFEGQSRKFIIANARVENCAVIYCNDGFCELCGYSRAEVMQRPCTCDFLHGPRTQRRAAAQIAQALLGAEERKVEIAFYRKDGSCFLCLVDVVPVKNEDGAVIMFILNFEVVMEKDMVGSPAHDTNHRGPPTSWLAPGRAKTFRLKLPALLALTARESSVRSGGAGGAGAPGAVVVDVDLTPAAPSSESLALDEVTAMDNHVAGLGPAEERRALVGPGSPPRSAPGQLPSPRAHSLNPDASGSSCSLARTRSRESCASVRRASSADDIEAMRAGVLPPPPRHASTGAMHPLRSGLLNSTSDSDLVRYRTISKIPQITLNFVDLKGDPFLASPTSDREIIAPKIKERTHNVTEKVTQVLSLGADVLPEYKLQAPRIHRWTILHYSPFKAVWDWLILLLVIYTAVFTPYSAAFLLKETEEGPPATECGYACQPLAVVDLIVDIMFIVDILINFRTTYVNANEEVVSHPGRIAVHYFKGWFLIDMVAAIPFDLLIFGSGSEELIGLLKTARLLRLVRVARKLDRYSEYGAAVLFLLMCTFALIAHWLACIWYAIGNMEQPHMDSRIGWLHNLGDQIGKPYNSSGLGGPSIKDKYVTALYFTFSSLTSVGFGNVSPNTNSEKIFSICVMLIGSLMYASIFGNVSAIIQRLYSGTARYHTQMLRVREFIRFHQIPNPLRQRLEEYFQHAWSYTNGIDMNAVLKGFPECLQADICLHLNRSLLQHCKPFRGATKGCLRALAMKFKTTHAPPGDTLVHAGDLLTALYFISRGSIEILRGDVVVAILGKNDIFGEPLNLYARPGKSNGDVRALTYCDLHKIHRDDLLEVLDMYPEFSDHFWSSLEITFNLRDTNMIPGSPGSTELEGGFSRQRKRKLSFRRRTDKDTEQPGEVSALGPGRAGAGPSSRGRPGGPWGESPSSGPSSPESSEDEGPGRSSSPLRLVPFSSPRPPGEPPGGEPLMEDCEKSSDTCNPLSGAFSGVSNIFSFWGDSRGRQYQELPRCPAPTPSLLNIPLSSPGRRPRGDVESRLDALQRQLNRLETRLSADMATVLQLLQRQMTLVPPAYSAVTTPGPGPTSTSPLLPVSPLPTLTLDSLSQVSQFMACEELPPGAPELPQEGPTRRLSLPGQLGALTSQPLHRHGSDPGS

SMILES | inhibition at 10 µM (hERG) [%] | inhibition at 10 µM (KV10.1) [%] | IC50 (hERG) [µM] | IC50 (KV10.1) [µM]
CN(C)CC(O)COc1ccc(Oc2ccc(C(F)(F)F)cc2[N+](=O)[O-])cc1 (stereo not drawn) [Compound 6a, 1-(Dimethylamino)-3-(4-(2-nitro-4-(trifluoromethyl)phenoxy)phenoxy)propan-2-ol] | 69.1 | 23.7 |  | 
CCN(CC)CCOc1c(Cl)cc(Nc2ccc(C(F)(F)F)cc2[N+](=O)[O-])cc1Cl [Compound 17c, 3,5-Dichloro-4-(2-(diethylamino)ethoxy)-N-(2-nitro-4-(trifluoromethyl)phenyl)aniline] | 54.7 | 9.21 |  | 
O=[N+]([O-])c1cc(C(F)(F)F)ccc1Nc1ccc(OCCN2CCCC2)cc1 [Compound 19, 2-Nitro-N-(4-(2-(pyrrolidin-1-yl)ethoxy)phenyl)-4-(trifluoromethyl)aniline] | 65.9 | 55.7 |  | 
O=[N+]([O-])c1cc(C(F)(F)F)ccc1Nc1ccc(OCCN2CCCCCC2)cc1 [Compound 21, N-(4-(2-(Azepan-1-yl)ethoxy)phenyl)-2-nitro-4-(trifluoromethyl)aniline] | 77.5 ± 5.71 | 43.4 | 1.34 ± 0.32 | 13.3 ± 1.89
CN(C)CCOc1c(Br)cc(Nc2ccc(C(F)(F)F)cc2[N+](=O)[O-])cc1Br [Compound 18b, 3,5-Dibromo-4-(2-(dimethylamino)ethoxy)-N-(2-nitro-4-(trifluoromethyl)phenyl)aniline] | 66.8 | 26 |  | 
